Numbered stars: 1 amine (or outer) side, 2 acyl side, 3 side chain; on linkers, the order of the positions; unused ones are H or OH. Bridge positions count the residues as written; N and C are the ends. Square brackets hold non-standard residues; d marks the D form. Peptide text beside a SMILES is read from it. Tyr(3-NO2) = N[C@@H](Cc1ccc(O)c([N+](=O)[O-])c1)C(=O)O; Glutaryl = O=C(CCCC(=O)[*:2])[*:1]; Orn = NCCC[C@H](N)C(=O)O
What was measured:
S. aureus (ATCC 12600) = test: Minimum microbicidal concentration (MMC99) assay; type: cell-based; settings: BHI diluted 1/100, 37 °C, median, n = 3
Description: The microbicidal activity of the synthetic peptides was assessed against S. aureus (ATCC 12600; American Type Culture Collection, Manassas, VA, USA), Escherichia coli (CCUG 31246; Culture Collection, University of Gothenburg, Sweden), and Candida albicans (ATCC 64549/CCUG31028) using an MMC assay, as described previously by […] et al. (specific details in Supporting Information, pages 10, 11).[28] The assay was performed in BHI diluted 1/100 (BHI100). […] page 11: Table S5. Energy and structural ensembles of synthesized peptides. […] Energy -3887.06 -3620.88 -4968.42 -2163.76 -2646.75 Van der Waals solv. Energy 117.32 91.57 183.20 -88.88 -139.89 Mean RMSD* (Å), mean±SD […] Heavy atoms 1.87 ± 0.33 1.77 ± 0.50 0.98 ± 0.34 0.63 ±0.22 2.88 ±0.62 MMC99 activity including salt stability measurements Antimicrobial activity of L2 and L3 in the presence of NaCl. 1Table S6. Peptide MMC99 (μg/ml) sin NaCl S. aureus E.coli C. albicans (mM) 2[…] 0 50 25 25 85 - - - - - - >200 >200 >200 150 - - - - - - >200 >200 >200 3L 0 12.5 12.5 25 12,5 6.3 6.3 12.5 6.3 12.5 […] 150 >400 >400 (-)2 >400 >400 >400 >200 >200 >200 […] or 150 mM NaCl. L2 and L3 were serially diluted in twofold steps with a starting dilution of 200 μg/ml […] All sample dilutions were run in duplicates (L2) or triplicates (L3). 2 The growth of S. aureus at 24 h in BHI 100 with 85 or 150 mM NaCl was reduced. Minimum microbicidal concentration (MMC), killing 99% of the inoculum. All microorganisms were cultured in brain-heart infusion broth (BHI) overnight on a shaker at 37°C. The cultures were thereafter transferred to fresh BHI broth in volumes constituting 10% of total, and incubated for an additional 2 h to reach exponential growth phase. The bacterial cultures were washed once in BHI diluted 1/100 (BHI100), followed by resuspension in BHI100. The cell suspensions were diluted to a density of […] (bacteria) or 2x10^7 CFU/ml (yeast), as estimated by optical density measurement at 590 nm. […] Serum stability Figure S 133. […] A) peptide L2 B) peptide L3. C) peptide L3-K. D) peptide C3.

C. albicans = test: microbe, parasite or virus in culture; type: cell-based; settings: 16 h
[1] = system: hepatoblastoma (HepG2) cells; type: cell-based, human
Description: To confirm the peptide selectivity toward bacteria cells, cytotoxicity assays of synthesized peptides L2, L3, L3-K, and C3 against human embryonic kidney (HEK) and hepatoblastoma (HepG2) were performed (Figure 4). The cell viability was assessed using resazurin 24 h post peptide exposure. The line at 70% cell viability marks out the threshold for cytotoxic potential compared to the negative control.
Figure 4 Cell viability assessment using the resazurin assay 24 h post peptide exposure: (a) HepG2 and (b) HEK cells were treated with various concentrations of the peptides C3, L3, L3-K, and L2. Triton-X was used as a positive control. Cells cultured in pure cell media were used as negative controls and were considered to have 100% cell viability. The line represents the threshold for cytotoxicity level of 70% of cell viability compared to the negative control. Data are presented as the mean ± SD of three biological replicates of the HepG2 cells and the mean ± SD of two biological replicates of the HEK cells.
Cytotoxicity against human embryonic kidney (HEK) and hepatoblastoma (HepG2) cell lines was assessed. Cells were grown to an initial seeding density of 10 000 cells per well. Metabolic activity was determined in a resazurin-based assay. HEK and HepG2 cells were exposed to four different concentrations of the peptides for 24 h. Treatment with Triton X-100 at 1% v/v was used as a positive control. Following this exposure period, the cells were treated with resazurin at a final concentration of 0.015 mg/mL for 3 h. The metabolic activity was then determined in an resazurin-based assay. The fluorescence intensities were quantified in a Hidex Sense microplate reader using an excitation wavelength of 544 nm and an emission wavelength of 590 nm.

E. coli CCUG31246 = test: Propidium iodide staining (pore formation); type: cell-based
Description: Due to the overall similarity of the peptides’ cytological profiles to that of polymyxin B, we further tested their ability to form pores in the cell membrane. To this end, we used the fluorescence probe propidium iodide, which cannot cross intact membranes but can enter cells through pores of sufficient size.[39]
Pore formation was investigated with the fluorescence dye propidium iodide as described previously[56] with minor modifications. E. coli CCUG31246 was grown to an OD600 of 0.3 and subsequently treated with different peptides for 10 and 60 min. Samples were stained with 1 μg/mL propidium iodide for 15 min (added 5 min before adding antibiotics for the 10 min time point and after 45 min of antibiotic treatment for the 60 min time point), spotted on 1.2% agarose films, and sealed with a gene frame. Microscopy was performed as described above. The fluorescence intensity of the different samples was analyzed with MicrobeJ. For detection of bacterial cells from phase contrast images, parameters were set to an area of 1.5-max, length of 1-max, width 0.5–2.5, curvature 0–1.5, and an angularity of 0–0.5. Fluorescence intensity parameters were set to an area of 1.5-max, length of 1-max, and width 0.5–2.5. All other parameters remained at default settings.

CC(C)[C@H]1NC(=O)[C@H](CCCN)NC(=O)[C@H]([C@@H](C)O)NC(=O)[C@H](CCCN)NC(=O)[C@H](Cc2c[nH]c3ccccc23)NC(=O)[C@@H](C)NC(=O)[C@@H](C(C)C)NC(=O)[C@@H](C)NC(=O)[C@H](Cc2c[nH]c3ccccc23)NC(=O)CCCC(=O)NCCCC[C@@H](C(N)=O)NC(=O)[C@H](Cc2ccc(O)c([N+](=O)[O-])c2)NC1=O [C3] (W[dA][dV][dA]W[Orn]T[Orn][dV][Tyr(3-NO2)]K-NH2; linker N-11 via Glutaryl)
S. aureus MMC99 6 h (S. aureus (ATCC 12600); 6 h): >100 µg/mL | S. aureus MMC99 24 h (S. aureus (ATCC 12600); 24 h): >100 µg/mL | S. aureus MMC99 2 h (S. aureus (ATCC 12600); lowest concentration killing 99% of inoculum, 2 h, two-fold dilutions 100-1.6 μg/mL): >100 µg/mL | C. albicans MIC (C. albicans): >512 µg/mL | cytotoxicity, cell viability HepG2 [1]: at the highest tested concentration seems to have cytotoxic properties | cells remaining unstained by propidium iodide after 60 min (E. coli CCUG31246; 1× MIC (64 μg/mL L3, 128 μg/mL L3-K, 512 μg/mL C3), 60 min, 1 μg/mL propidium iodide): 64% | propidium iodide uptake (E. coli CCUG31246; 1× MIC of peptide, polymyxin B 10 μg/mL, 10 and 60 min): only a small subpopulation of cells
